Experimental data as given in ChEMBL document CHEMBL5726710, “Thiazolopyrrolidine inhibitors of ROR- γ” (2018).

Target: T1, Nuclear receptor ROR-gamma (Homo sapiens, UniProt P51449)
T1 sequence (P51449 whole entry): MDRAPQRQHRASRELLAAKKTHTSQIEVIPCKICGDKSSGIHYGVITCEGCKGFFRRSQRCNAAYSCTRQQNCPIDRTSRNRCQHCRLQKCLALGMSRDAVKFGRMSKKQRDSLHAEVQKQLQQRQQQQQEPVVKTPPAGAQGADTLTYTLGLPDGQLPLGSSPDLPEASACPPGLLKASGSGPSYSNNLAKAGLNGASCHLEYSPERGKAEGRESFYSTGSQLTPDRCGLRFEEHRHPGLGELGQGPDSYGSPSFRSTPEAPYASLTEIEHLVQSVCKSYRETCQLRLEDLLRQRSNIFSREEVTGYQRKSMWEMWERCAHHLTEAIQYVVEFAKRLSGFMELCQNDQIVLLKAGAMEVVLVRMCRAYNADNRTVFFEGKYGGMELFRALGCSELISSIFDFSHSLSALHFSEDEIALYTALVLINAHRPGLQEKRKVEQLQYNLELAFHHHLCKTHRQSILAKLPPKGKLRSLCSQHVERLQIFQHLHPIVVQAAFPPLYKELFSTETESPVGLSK
Assay: Binding Assay: Compounds of the present invention were tested for ability to bind to RORγ in a cell-free competition assay with commercially available radio-ligand (RL), 25-hydroxy [26,27-3H]— cholesterol (PerkinElmer, Cat. # NET674250UC), for a ligand binding site on a recombinant RORγ Ligand Binding Domain (LBD) protein expressed as a 6×His-Glutathione-S-Transferase (GST) fusion (“6×His” disclosed as SEQ ID NO: 2). The assay was performed in 96-well SPA plates (PerkinElmer, Cat. #1450-401) in 50 mM HEPES buffer, pH 7.4, containing 150 mM NaCl, 5 mM MgCl2, 10% (v/v) glycerol, 2 mM CHAPS, 0.5 mM β-octylglucopyranoside and 5 mM DTT. Tested compounds were dissolved in DMSO, and semi-log (3.162×) serial dilutions of the compounds were prepared in the same solvent. Two μL of the DMSO solutions were mixed with 28 μL of 8.6 nM 25-hydroxy [26,27-3H]— cholesterol and 50 μL of 24 nM RORγ LBD. The plate was shaken at 700 rpm for 20 min and incubated for 10 min at rt, after which 40 μL of poly-Lys YSi SPA beads (PerkinElmer, Cat. # RPNQ0010) were added to achieve 50 μg of the beads per well. The plate was incubated on an orbital shaker for 20 min and then for 10 min without agitation at rt. SPA signal for tritium beta radiation was registered on PerkinElmer Microbeta plate reader. […]

- Ki: > 1000 nM
SMILES: CC(C)[C@H]1c2nc(NS(=O)(=O)c3cccc(C(F)(F)F)c3)sc2CN1Cc1ccc(Cl)cc1
